From patent publication US20200031785A1, “METHODS FOR TREATING CHRONIC PAIN AND OPIOID DEPENDENCE USING ADENYLYL CYCLASE INHIBITORS” (Purdue Research Foundation, priority 2017, published 2020) come the findings set out here.

One test has as its target T1, hAC8 (Homo sapiens, UniProt P40145).
T1 construct: expressed in transfected cells
The test can be described thus: Cyclic AMP accumulation in HEK cells stably expressing AC8, stimulated with A23187 (HTRF). It counts as cell-based. To be noted: HEK-AC8 cells; for inhibition at 30 µM: HEK293; for IC50: read-out: HEK-AC8 IC50. As to the method: (§1) Fresh powders of several robust inhibitors (>90% inhibition) were evaluated in multiple confirmation assays assessing the dose response relationship for inhibiting AC1 and AC8 activity. Confirmation assays used A23817 to selectively stimulate recombinant AC1 or AC8 in the HEK cell background (Cumbay and Watts (2001), J. Pharmacol Exp Ther 297:1201-1399). This approach takes advantage of one unique regulatory property of AC1 for the development of selective inhibitors. Both AC1 and AC8 are robustly activated by Ca^2+/CaM under a variety of conditions, whereas the effects of Ca^2+/CaM on AC3 are modest and conditional requiring activation by G proteins. Previous studies have identified unique Ca^2+/CaM binding domains as one possible site of interaction to achieve AC1 (vs. AC8) selectivity (Masada et al., 2012, Biochemistry 51:7917-7929).
(§2) The primary technology we employed to measure cAMP accumulation was a homogenous time-resolved fluorescence (HTRF) assay, the same technology utilized in the primary screen. […] This could be due to either 1) the chemical scaffolds are exquisitely selective toward the AC family of enzymes or 2) the library has not been screened against a sufficient number of targets. The answer is likely a combination of the two; nonetheless, the lack of biological data to date bodes well for these series and any potential off-target promiscuity.
(§3) Human embryonic kidney (HEK) cells stably expressing AC1, AC8, or AC1 with the MOR were cultured in Dulbecco's Modified Eagle Medium (Life Technologies, Grand Island, N.Y.) supplemented with 5% bovine calf serum (Hyclone, Logan, Utah), 5% fetal clone I (Hyclone), Antibiotic-Antimycotic (Life Technologies), and G418 (Invivogen, San Diego, Calif.) (HEK-AC1), or hygromycin B (Fisher Scientific, Pittsburgh, Pa.) (HEK-AC8), or G418 and puromycin (Sigma-Aldrich) (HEK-AC1/MOR). Chinese hamster ovary (CHO) cells expressing the MOR (CHO-MOR) in the PathHunter® β-Arrestin GPCR assay platform were purchased from DiscoveRx (Freemont, Calif.). Cells were grown in Ham's F12 media supplemented with 1 mM L-glutamine (Thermo Scientific, West Palm Beach, Fla.), 10% fetal bovine serum (Hyclone), 50 U/ml penicillin, 50 μg/ml streptomycin (Life Technologies), G418 and hygromycin B. Cells were grown and frozen as previously described (J. M. Conley, et al., J Vis Exp, e51218 (2014)).
(§4) Cyclic AMP accumulation was measured as previously described (Brust, et al., J. Pharmacol. Exp. Ther. 352, 480-493(2015)). Briefly, cryopreserved cells were thawed, resuspended in optiMEM (Life Technologies), and plated in white, flat bottom, low-volume, tissue culture-treated 384 well plates (PerkinElmer, Shelton, Conn.). Plates with cells were incubated in a 37° C. humidified incubator for 1 h. Inhibitors were added and plates were incubated at room temperature for 30 min followed by the addition of AC stimulants in the presence of 500 μM IBMX. Cells were incubated at room temperature for 1 h and cAMP accumulation was measured using Cisbio's cAMP kit (Cisbio Bioassays, Bedford, Mass.) according to the manufacturer's instructions.
In general terms: Time-resolved FRET reads energy transfer from a long-lived donor to a nearby acceptor.

The next test deals with T2, hAC1 (Homo sapiens, UniProt Q08828).
T2 construct: expressed in transfected cells
The test can be described thus: Cyclic AMP accumulation in HEK cells stably expressing AC1, stimulated with A23187 (HTRF). In kind it is cell-based. The conditions noted are these: HEK-AC1 cells; for inhibition at 30 µM: HEK293; for IC50: read-out: HEK-AC1 IC50. As to the method:
The development and mechanistic characterization of AC1-selective small molecule inhibitors is believed to provide novel non-opioid weapons in the war on chronic pain. We identified our initial hits via screening 10,000 selected compounds from the Life Chemicals collection. The screen was carried out using HEK cells stably expressing AC1 (HEK-AC1) and cyclic AMP accumulation was stimulated using the Ca^2+ ionophore, A23187 to selectively activate AC1. Compounds with potential chemical liabilities and PAINs were removed from further evaluation (Baell and Holloway, J. Med. Chem. 2010, 53, 2719-2740).
as §1, §2, §3, §4

T2 sequence (Q08828 whole entry): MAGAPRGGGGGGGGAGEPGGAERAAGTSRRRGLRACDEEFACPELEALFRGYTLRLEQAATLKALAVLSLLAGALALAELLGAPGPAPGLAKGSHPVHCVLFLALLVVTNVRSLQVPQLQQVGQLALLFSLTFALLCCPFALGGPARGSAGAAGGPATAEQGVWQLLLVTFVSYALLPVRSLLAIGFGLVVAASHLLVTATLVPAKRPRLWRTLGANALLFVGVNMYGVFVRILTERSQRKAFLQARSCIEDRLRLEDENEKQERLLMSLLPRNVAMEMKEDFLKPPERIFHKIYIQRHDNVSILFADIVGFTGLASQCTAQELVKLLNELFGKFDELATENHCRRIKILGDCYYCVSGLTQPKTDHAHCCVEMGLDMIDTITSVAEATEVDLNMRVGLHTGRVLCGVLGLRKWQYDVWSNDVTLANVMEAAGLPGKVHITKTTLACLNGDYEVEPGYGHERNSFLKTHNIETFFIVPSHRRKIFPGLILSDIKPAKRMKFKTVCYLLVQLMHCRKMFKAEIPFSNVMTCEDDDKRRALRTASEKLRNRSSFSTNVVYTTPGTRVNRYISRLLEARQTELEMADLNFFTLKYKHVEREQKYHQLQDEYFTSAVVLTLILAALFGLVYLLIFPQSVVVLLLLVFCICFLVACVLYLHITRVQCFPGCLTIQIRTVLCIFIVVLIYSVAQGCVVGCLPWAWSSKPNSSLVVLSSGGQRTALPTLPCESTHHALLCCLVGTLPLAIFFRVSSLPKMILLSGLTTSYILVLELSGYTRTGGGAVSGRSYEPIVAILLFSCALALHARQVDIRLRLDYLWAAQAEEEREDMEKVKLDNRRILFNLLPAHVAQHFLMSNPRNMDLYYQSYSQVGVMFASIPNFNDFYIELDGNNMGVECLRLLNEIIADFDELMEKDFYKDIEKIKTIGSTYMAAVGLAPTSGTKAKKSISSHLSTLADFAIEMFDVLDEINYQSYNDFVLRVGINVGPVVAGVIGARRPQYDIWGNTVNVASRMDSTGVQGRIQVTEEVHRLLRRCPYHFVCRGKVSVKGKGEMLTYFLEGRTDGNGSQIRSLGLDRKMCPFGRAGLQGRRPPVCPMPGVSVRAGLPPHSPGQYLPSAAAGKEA
T1 sequence (P40145 whole entry): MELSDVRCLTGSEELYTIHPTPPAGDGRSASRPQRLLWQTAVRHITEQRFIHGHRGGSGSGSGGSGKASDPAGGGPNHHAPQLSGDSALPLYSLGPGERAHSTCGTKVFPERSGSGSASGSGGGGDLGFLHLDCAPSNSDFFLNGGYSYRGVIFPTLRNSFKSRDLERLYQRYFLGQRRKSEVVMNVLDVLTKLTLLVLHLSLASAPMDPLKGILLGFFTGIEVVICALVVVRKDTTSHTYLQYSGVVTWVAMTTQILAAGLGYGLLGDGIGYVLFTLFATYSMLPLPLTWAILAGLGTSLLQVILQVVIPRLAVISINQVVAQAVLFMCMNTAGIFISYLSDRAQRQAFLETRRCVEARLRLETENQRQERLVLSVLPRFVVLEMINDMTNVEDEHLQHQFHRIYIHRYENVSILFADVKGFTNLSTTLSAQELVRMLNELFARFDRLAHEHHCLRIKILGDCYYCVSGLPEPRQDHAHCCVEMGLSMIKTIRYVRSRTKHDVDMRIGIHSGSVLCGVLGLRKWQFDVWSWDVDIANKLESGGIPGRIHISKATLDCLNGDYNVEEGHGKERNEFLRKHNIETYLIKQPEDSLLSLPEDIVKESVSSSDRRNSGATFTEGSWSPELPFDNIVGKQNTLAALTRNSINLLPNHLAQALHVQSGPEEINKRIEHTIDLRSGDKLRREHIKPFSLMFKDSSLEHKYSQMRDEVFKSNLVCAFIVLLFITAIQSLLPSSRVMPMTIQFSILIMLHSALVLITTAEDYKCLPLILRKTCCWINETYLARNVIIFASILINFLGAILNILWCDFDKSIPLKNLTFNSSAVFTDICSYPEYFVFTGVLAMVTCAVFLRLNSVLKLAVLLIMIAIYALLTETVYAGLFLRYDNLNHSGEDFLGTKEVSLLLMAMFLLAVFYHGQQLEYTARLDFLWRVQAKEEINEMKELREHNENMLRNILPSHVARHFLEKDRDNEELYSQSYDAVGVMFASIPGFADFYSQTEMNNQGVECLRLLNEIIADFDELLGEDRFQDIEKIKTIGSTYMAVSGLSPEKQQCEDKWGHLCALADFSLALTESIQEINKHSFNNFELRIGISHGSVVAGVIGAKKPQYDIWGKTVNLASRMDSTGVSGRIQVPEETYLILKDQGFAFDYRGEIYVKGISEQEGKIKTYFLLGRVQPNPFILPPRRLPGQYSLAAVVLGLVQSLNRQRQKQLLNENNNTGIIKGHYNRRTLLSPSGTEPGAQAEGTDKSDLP

Take `Cc1ccc(C(=O)Nc2nnc(C3CCCCC3)o2)cc1C(F)(F)F` [AC10071, N-(5-cyclohexyl-1,3,4-oxadiazol-2-yl)-4-methyl-3-(trifluoromethyl)benzamide]: on hAC8, the inhibition at 30 µM was determined as 83 ± 7% and the IC50 stood at 7 ± 1 µM. In addition, at hAC1, the inhibition at 30 µM amounted to 100 ± 1% and the IC50 amounted to 3.7 ± 1 µM.

With `O=C(Nc1nnc(-c2ccc(F)cc2)o1)c1ccc(Cl)cc1` [AC10054, 4-chloro-N-(5-(4-fluorophenyl)-1,3,4-oxadiazol-2-yl)benzamide], the inhibition at 30 µM on hAC8 came out at 11 ± 9%. At hAC1, the inhibition at 30 µM turned out to be 76 ± 1% and the IC50 was determined as 8.9 ± 1 µM.

In the case of `COc1ccc(C(=O)Nc2nnc(-c3cccs3)o2)cc1` [AC10018, 4-methoxy-N-(5-(thiophen-2-yl)-1,3,4-oxadiazol-2-yl)benzamide], the inhibition at 30 µM on hAC8 stood at 10 ± 7%; on hAC1 it was 80 ± 5%. Also, the IC50 on hAC1 is 15 ± 2 µM.

`Cc1ccc(C(=O)Nc2nnc(-c3ccc4c(c3)OCCO4)o2)cc1` [AC10029, N-(5-(2,3-dihydrobenzo[b][1,4]dioxin-6-yl)-1,3,4-oxadiazol-2-yl)-4-methylbenzamide]: at hAC8, the inhibition at 30 µM turned out to be 25 ± 6% and the IC50 is 83 ± 47 µM. On hAC1, the inhibition at 30 µM amounted to 86 ± 11% and the IC50 was found to be 11.5 ± 4 µM.

As to `CSc1ccc(C(=O)Nc2nnc(-c3ccc4c(c3)OCCO4)o2)cc1` [AC10020, 4-methylthio-N-(5-(2,3-dihydrobenzo[b][1,4]dioxin-6-yl)-1,3,4-oxadiazol-2-yl)benzamide], at hAC8, the inhibition at 30 µM was determined as 37 ± 9% and the half-inhibitory concentration (IC50) worked out at 76 ± 39 µM. On hAC1, the inhibition at 30 µM was 88 ± 5% and the IC50 is 9.5 ± 1 µM.

Take `CSc1cccc(C(=O)Nc2nnc(C3CCCCC3)o2)c1` [AC10011, N-(5-cyclohexyl-1,3,4-oxadiazol-2-yl)-3-(methylthio)benzamide]: at hAC8, the inhibition at 30 µM is 43 ± 6% and the concentration for half-maximal inhibition (IC50) was found to be 61 ± 22 µM. Besides, on hAC1, the inhibition at 30 µM amounted to 77 ± 8% and the half-maximal inhibitory concentration (IC50) was 6.6 ± 3 µM.

Regarding `Cc1ccc(C(=O)Nc2nnc(C3CCCCC3)o2)cc1C` [AC10024, N-(5-cyclohexyl-1,3,4-oxadiazol-2-yl)-3,4-dimethylbenzamide], on hAC8, the inhibition at 30 µM stood at 57 ± 7% and the IC50 turned out to be 44 ± 6 µM. At hAC1, the inhibition at 30 µM turned out to be 85 ± 4% and the 50% inhibitory concentration (IC50) stood at 8.1 ± 2 µM.

`O=C(Nc1nnc(C2CCCCC2)o1)c1cccc(C(F)(F)F)c1` [AC10021, N-(5-cyclohexyl-1,3,4-oxadiazol-2-yl)-3-(trifluoromethyl)benzamide]: on hAC8, the inhibition at 30 µM turned out to be 62 ± 8% and the IC50 turned out to be 33 ± 8 µM. In addition, at hAC1, the inhibition at 30 µM is 99 ± 1% and the IC50 was found to be 6 ± 0.6 µM.

For the compound `O=C(Nc1nnc(C2CCCCC2)o1)c1ccc(Br)cc1` [AC10007, 4-bromo-N-(5-cyclohexyl-1,3,4-oxadiazol-2-yl)benzamide], at hAC8, the inhibition at 30 µM was 71 ± 11% and the IC50 was 25 ± 8 µM. Moreover, at hAC1, the inhibition at 30 µM came out at 82 ± 7% and the IC50 is 8.6 ± 3 µM.

On to `O=C(Nc1nnc(C2CCCCC2)o1)c1ccc(F)cc1` [AC10053, N-(5-cyclohexyl-1,3,4-oxadiazol-2-yl)-4-fluorobenzamide], for which the inhibition at 30 µM on hAC8 amounted to 7 ± 4%. Also, at hAC1, the inhibition at 30 µM is 74 ± 3% and the IC50 came out at 12.8 ± 1 µM.

In the case of `CC(C)Oc1ccc(C(=O)Nc2nnc(-c3ccc4c(c3)CCCC4)o2)cc1` [AC10010, 4-isopropoxy-N-(5-(5,6,7,8-tetrahydronaphthalen-2-yl)-1,3,4-oxadiazol-2-yl)benzamide], the values for the inhibition at 30 µM at hAC8 and on hAC1 were 63 ± 7% and 77 ± 13%, respectively. Also, the IC50 turned out to be 12.6 ± 6 µM at hAC8 and 9.9 ± 7 µM on hAC1.

For the compound `CC(C)Oc1ccc(C(=O)Nc2nnc(C3CCCCC3)o2)cc1` [AC10025, N-(5-cyclohexyl-1,3,4-oxadiazol-2-yl)-4-isopropoxybenzamide], on hAC8, the inhibition at 30 µM was 35 ± 8% and the half-inhibitory concentration (IC50) was determined as 53 ± 21 µM. Besides, at hAC1, the inhibition at 30 µM was determined as 86 ± 7% and the concentration for half-maximal inhibition (IC50) came to 10.1 ± 1 µM.

In the case of `CCc1ccc(C(=O)Nc2nnc(-c3ccc(F)cc3)o2)cc1` [AC10044, 4-ethyl-N-(5-(4-fluorophenyl)-1,3,4-oxadiazol-2-yl)benzamide], on hAC8, the inhibition at 30 µM amounted to 32 ± 12% and the half-maximal inhibitory concentration (IC50) was determined as 51 ± 7 µM. Further, at hAC1, the inhibition at 30 µM worked out at 88 ± 4% and the IC50 turned out to be 8.2 ± 2 µM.

Regarding `O=C(Nc1nnc(-c2ccc(F)cc2)o1)c1cccc(C(F)(F)F)c1` [AC10028, N-(5-(4-fluorophenyl)-1,3,4-oxadiazol-2-yl)-3-(trifluoromethyl)benzamide], at hAC8, the inhibition at 30 µM amounted to 58 ± 1% and the IC50 turned out to be 29 ± 1 µM. On hAC1, the inhibition at 30 µM stood at 99 ± 2% and the IC50 worked out at 5 ± 1 µM.

For `Cc1ccc(C(=O)Nc2nnc(-c3ccc(F)cc3)o2)cc1C(F)(F)F` [AC10067, N-(5-(4-fluorophenyl)-1,3,4-oxadiazol-2-yl)-4-methyl-3-(trifluoromethyl)benzamide], the inhibition at 30 µM turned out to be 75 ± 12% on hAC8 and 93 ± 5% at hAC1. For the same compound, the values for the IC50 on hAC8 and at hAC1 were 9 ± 5 µM and 4.6 ± 2 µM, respectively.

Take `CC(C)Oc1ccc(C(=O)Nc2nnc(-c3ccc4c(c3)OCCO4)o2)cc1` [AC10037, N-(5-(2,3-dihydrobenzo[b][1,4]dioxin-6-yl)-1,3,4-oxadiazol-2-yl)-4-isopropoxybenzamide]: at hAC8, the inhibition at 30 µM was 39 ± 7% and the IC50 stood at 56 ± 23 µM. For the same compound, at hAC1, the inhibition at 30 µM amounted to 88 ± 3% and the IC50 turned out to be 7.5 ± 0.7 µM.

Turning to `Cc1cc(C(=O)Nc2nnc(-c3ccc(F)cc3)o2)cc(C(F)(F)F)c1` [AC10065, N-(5-(4-fluorophenyl)-1,3,4-oxadiazol-2-yl)-3-methyl-5-(trifluoromethyl)benzamide], the inhibition at 30 µM on hAC8 came out at 89 ± 2%; at hAC1 it was 99 ± 0.5%. Moreover, the concentration for half-maximal inhibition (IC50) was 4.1 ± 0.4 µM on hAC8 and 1.4 ± 0.2 µM on hAC1.

On to `CC(C)Oc1ccc(C(=O)Nc2nnc(-c3cccs3)o2)cc1` [AC10017, 4-isopropoxy-N-(5-(thiophen-2-yl)-1,3,4-oxadiazol-2-yl)benzamide], for which, at hAC8, the inhibition at 30 µM came to 35 ± 4% and the IC50 worked out at 83 ± 22 µM. Besides, on hAC1, the inhibition at 30 µM turned out to be 84 ± 5% and the IC50 came to 10.7 ± 2 µM.

For `COc1cc(C(=O)Nc2nnc(-c3ccc4c(c3)CCCC4)o2)cc(C(F)(F)F)c1` [AC10074, 3-methoxy-N-(5-(5,6,7,8-tetrahydronaphthalen-2-yl)-1,3,4-oxadiazol-2-yl)-5-(trifluoromethyl)benzamide], at hAC8, the inhibition at 30 µM was determined as 79 ± 6% and the IC50 is 10 ± 0.4 µM. Also, on hAC1, the inhibition at 30 µM worked out at 85 ± 3% and the concentration for half-maximal inhibition (IC50) is 9.4 ± 1 µM.

For `O=C(Nc1nnc(-c2ccc(F)cc2)o1)c1cccc(-c2ccccc2)c1` [AC10064, N-(5-(4-fluorophenyl)-1,3,4-oxadiazol-2-yl)-[1,1′-biphenyl]-3-carboxamide], at hAC8, the inhibition at 30 µM is 84 ± 3% and the half-inhibitory concentration (IC50) was found to be 7 ± 1 µM. For the same compound, on hAC1, the inhibition at 30 µM was 98 ± 1% and the 50% inhibitory concentration (IC50) was found to be 2.3 ± 0.4 µM.

For the compound `O=C(Nc1nnc(-c2ccc3c(c2)OCCO3)o1)c1ccc(Br)cc1` [AC10015, 4-bromo-N-(5-(2,3-dihydrobenzo[b][1,4]dioxin-6-yl)-1,3,4-oxadiazol-2-yl)benzamide], on hAC8, the inhibition at 30 µM amounted to 68 ± 0.5% and the concentration for half-maximal inhibition (IC50) stood at 23 ± 3 µM. Moreover, at hAC1, the inhibition at 30 µM is 101 ± 0.4% and the IC50 came out at 3.4 ± 0.6 µM.

The term inhibition denotes the relative decrease from the control value, in per cent. For orientation: IC50 means the point on the concentration scale where inhibition reaches its midpoint.
